Test results taken from US20060173632A1, “Method for predicting effectiveness of chemotherapy” (SYSMEX CORPORATION, priority 2005, published 2006).

Columns and labels:
Type in all cases: in vivo
Set-up in all cases: key: Type I mouse is a mouse confirmed to highly sensitive to the anticancer agent. By administering paclitaxel into this type of mouse, the tumor almost disappeared; Type II mouse is a mouse whose sensitivity to the anticancer agent was confirmed to be moderate. By administering paclitaxel into this type of mouse, the increase in tumor size is suppressed; Type III mouse is a mouse confirmed to be poor in sensitivity to the anticancer agent. Even if paclitaxel is administered into this type of mouse, the tumor size continues increasing
[1] = tested on: human-derived breast cancer cultured cells (cell C); assay: Paclitaxel effect on tumor size in mice grafted with breast cancer cells C; details: Cell C graft; paclitaxel 20 mg/kg/day once a day for 5 day; change in tumor size to day 11; one line per mouse
Description: (§1) Five kinds of human-derived breast cancer cultured cells (cells A to E) were transplanted subcutaneously into the back of mice, and the mice were maintained for 21 to 28 days to graft the breast tumor cells thereon. 50 mice (Nos. 1 to 50 (Table 2)) on which the breast tumor cells had been grafted were thus created. From the back of each of these mice, a 2.5 mm×2.5 mm tissue section (about 50 mg) was cut off, and a lysis buffer (containing 0.1 w/v % Nonidet P-40 (NP-40) (manufactured by Calbiochem), 50 mM Tris-HCl (pH 7.4), 5 mM EDTA, 50 mM sodium fluoride, 1 mM sodium orthovanadate and 100 μl/ml protease cocktail (Sigma)) was added to this tissue section. The tissue section in the lysis buffer was homogenized with an electric homogenizer.
(§2) 20 mg/kg (mouse weight)/day of paclitaxel was administered once a day into each of mice Nos. 1 to 50 for 5 day. The tumor size from the initiation of administration to day 11 was measured. Depending on change in tumor size, mice Nos. 1 to 50 were classified into types I, II and III. Type I mouse is a mouse confirmed to highly sensitive to the anticancer agent. By administering paclitaxel into this type of mouse, the tumor almost disappeared. Type II mouse is a mouse whose sensitivity to the anticancer agent was confirmed to be moderate. By administering paclitaxel into this type of mouse, the increase in tumor size is suppressed. […]

[2] = tested on: human-derived breast cancer cultured cells (cell E); assay: Paclitaxel effect on tumor size in mice grafted with breast cancer cells E; details: Cell E graft; paclitaxel 20 mg/kg/day once a day for 5 day; change in tumor size to day 11; one line per mouse
Description: as §1, §2

[3] = tested on: human-derived breast cancer cultured cells (cell B); assay: Paclitaxel effect on tumor size in mice grafted with breast cancer cells B; details: Cell B graft; paclitaxel 20 mg/kg/day once a day for 5 day; change in tumor size to day 11; one line per mouse
Description: as §1, §2

[4] = tested on: human-derived breast cancer cultured cells (cell A); assay: Paclitaxel effect on tumor size in mice grafted with breast cancer cells A; details: Cell A graft; paclitaxel 20 mg/kg/day once a day for 5 day; change in tumor size to day 11; one line per mouse
Description: as §1, §2

[5] = tested on: human-derived breast cancer cultured cells (cell D); assay: Paclitaxel effect on tumor size in mice grafted with breast cancer cells D; details: Cell D graft; paclitaxel 20 mg/kg/day once a day for 5 day; change in tumor size to day 11; one line per mouse
Description: as §1, §2

Structure (SMILES): CC(=O)O[C@H]1C(=O)[C@@]2(C)[C@H]([C@H](OC(=O)c3ccccc3)[C@]3(O)C[C@H](OC(=O)[C@H](O)[C@@H](NC(=O)c4ccccc4)c4ccccc4)C(C)=C1C3(C)C)[C@]1(OC(C)=O)CO[C@@H]1C[C@@H]2O [paclitaxel]
- result of (4) [1]: Type II
- result of (4) [2]: Type III
- result of (4) [3]: Type II
- result of (4) [4]: Type I
- result of (4) [5]: Type III
